Assay results taken from patent US8324190B2, “Treatment of proliferative disorders with amino-substituted (E)-2,6- dialkoxystyryl 4-substituted benzylsulfones” (Temple University—Of The Commonwealth System of Higher …, priority 2002, dated 2012).
Structures can show the parent of a compound that is named as a salt.

Tests used:
Assay in all cases: Tumor cell viability assay, Trypan blue exclusion
Assay type in all cases: cell-based
Conditions in all cases: cell viability after 96 hours
[1] = test system: breast adenocarcinoma cell line BT-20
Protocol: (§1) BT-20 is an estrogen-unresponsive cell line. NIH/3T3 and HFL are normal murine and human fibroblasts, respectively. BT-20, DLD-1 and H157 were grown in Dulbecco's modified Eagle's medium (DMEM) containing 10% fetal bovine serum supplemented with penicillin and streptomycin. DU145 was cultured in RPMI with 10% fetal bovine serum containing penicillin and streptomycin. NIH3T3 and HFL cells were grown in DMEM containing 10% calf serum supplemented with penicillin and streptomycin. Cells were plated at density levels of 1.0×10^5 cells per well in six-well plates. Cell cultures were maintained at 37° C. in a humidified atmosphere of 5% CO2. Cells were treated with compounds of the invention at various concentrations. Cell viability was determined after 96 hours by the Trypan blue exclusion method. […] The number of viable cells remaining after 96 hours of treatment was determined using hemacytometer following trypan blue staining. The number of viable cells has been plotted as the percent of Vehicle treated (control) cells.

[2] = test system: colorectal carcinoma cell line DLD-1
Protocol: as §1

[3] = test system: non-small cell lung carcinoma cell line H157
Protocol: as §1

[4] = test system: prostate carcinoma cell line DU-145
Protocol: as §1

Compound | IC50 [1] [µM] | IC50 [2] [µM] | IC50 [3] [µM] | IC50 [4] [µM]
COc1cc(OC)c(/C=C/S(=O)(=O)Cc2ccc(OC)c(NC(=O)CCC(=O)O)c2)c(OC)c1 [Example 34, (E)-2,4,6-trimethoxystyryl-3-(succinamido)-4-methoxybenzyl-sulfone] | < 10 | < 10 | < 10 | < 10
COc1cc(OC)c(/C=C/S(=O)(=O)Cc2ccc(OC)c(NC(=O)CC(Cl)C(=O)O)c2)c(OC)c1 (stereo not drawn) [Example 35, (E)-2,4,6-trimethoxystyryl-3-(3-chlorosuccinamido)-4-methoxy-benzylsulfone] | < 10 | < 10 | < 10 | < 10
COc1cc(OC)c(/C=C/S(=O)(=O)Cc2ccc(OC)c(NC(=O)COC(=O)CCC(=O)O)c2)c(OC)c1 [Example 36, (E)-2,4,6-trimethoxystyryl-3-[3-(3-carboxypropanoyloxy)-acetamido]-4-methoxybenzylsulfone] | < 10 | < 10 | < 10 | < 10
COc1cc(OC)c(/C=C/S(=O)(=O)Cc2ccc(OC)c(NC(=O)CCCC(=O)O)c2)c(OC)c1 [Example 37, (E)-2,4,6-trimethoxystyryl-3-(glutaramido)-4-methoxybenzyl-sulfone] | < 10 | < 10 | < 10 | < 10
COc1cc(OC)c(/C=C/S(=O)(=O)Cc2ccc(OC)c(NC(=O)CP(=O)(O)O)c2)c(OC)c1 [Example 38, (E)-2,4,6-trimethoxystyryl-3-(phosphonatoacetamido)-4-methoxybenzylsulfone, disodium salt] | < 10 | < 10 | < 10 | < 10
COc1cc(OC)c(/C=C/S(=O)(=O)Cc2ccc(OC)c(NCCCC(=O)O)c2)c(OC)c1 [Example 39, (E)-2,4,6-trimethoxystyryl-3-(3-carboxypropylamino)-4-methoxybenzylsulfone] | < 10 | < 10 | < 10 | < 10
COc1cc(OC)c(/C=C/S(=O)(=O)Cc2ccc(OC)c(NCCC(=O)O)c2)c(OC)c1 [Example 40, (E)-2,4,6-trimethoxystyryl-3-(2-carboxyethylamino)-4-methoxy-benzylsulfone] | < 10 | < 10 | < 10 | < 10
COC(=O)Nc1cc(CS(=O)(=O)/C=C/c2c(OC)cc(OC)cc2OC)ccc1OC [Example 41, (E)-2,4,6-trimethoxystyryl-3-(methoxycarbonylamino)-4-methoxy-benzylsulfone] | < 10 | < 10 | < 10 | < 10
COc1ccc(S(=O)(=O)Nc2cc(CS(=O)(=O)/C=C/c3c(OC)cc(OC)cc3OC)ccc2OC)cc1 [Example 42, (E)-2,4,6-trimethoxystyryl-3-(4-methoxybenzenesulfamyl)-4-methoxybenzylsulfone] | < 10 | < 10 | < 10 | < 10
COc1cc(OC)c(/C=C/S(=O)(=O)Cc2ccc(OC)c(NC(=O)C(C)OC(C)=O)c2)c(OC)c1 (stereo not drawn) [Example 43, (E)-2,4,6-trimethoxystyryl-3-(2-acetoxypropionamido)-4-methoxybenzylsulfone] | < 10 | < 10 | < 10 | < 10
COC(=O)CCC(=O)Nc1cc(CS(=O)(=O)/C=C/c2c(OC)cc(OC)cc2OC)ccc1OC [Example 44, (E)-2,4,6-trimethoxystyryl-3-(methylsuccinamido)-4-methoxy-benzylsulfone] | < 10 | < 10 | < 10 | < 10
COc1cc(OC)c(/C=C/S(=O)(=O)Cc2ccc(OC)c(NC(=O)C(F)(F)C(F)(F)F)c2)c(OC)c1 [Example 46, (E)-2,4,6-trimethoxystyryl-3-(pentafluoropropionamido)-4-methoxybenzylsulfone] | < 10 | < 10 | < 10 | < 10
COC(=O)C(F)(F)C(=O)Nc1cc(CS(=O)(=O)/C=C/c2c(OC)cc(OC)cc2OC)ccc1OC [Example 47, (E)-2,4,6-trimethoxystyryl-3-(methyl-2,2-difluoromalonamido)-4-methoxybenzylsulfone] | < 10 | < 10 | < 10 | < 10
COc1cc(OC)c(/C=C/S(=O)(=O)Cc2ccc(OC)c(NC(=O)C(F)(F)C(F)(F)C(=O)O)c2)c(OC)c1 [Example 48, (E)-2,4,6-Trimethoxystyryl-3-(2,2,3,3,tetrafluorosuccinamido)-4-methoxybenzylsulfone] | < 10 | < 10 | < 10 | < 10
COc1cc(OC)c(/C=C/S(=O)(=O)Cc2ccc(OC)c(NC(=O)CN)c2)c(OC)c1 [Example 49, (E)-2,4,6-Trimethoxy-styryl-3-(aminoacetamido)-4-methoxy-benzylsulfone, hydrochloride] | < 10 | < 10 | < 10 | < 10
(E)-2,4,6-Trimethoxystyryl-3-amino-4-methoxybenzylsulfone-D-serineamide [Example 15] | < 10 | < 10 | < 10 | < 10
(E)-2,4,6-Trimethoxystyryl-3-amino-4-methoxybenzylsulfone-L-lysineamide [Example 13] | < 10 | < 10 | < 10 | < 10
(E)-2,4,6-Trimethoxystyryl-3-amino-4-methoxybenzylsulfone-L-serineamide [Example 14] | < 10 | < 10 | < 10 | < 10
